# Data: US11840731B2, “Method for diagnosing and treating subjects having single nucleotide polymorphisms in chromosome 2, 2:107,510,000-107,540,000 locus” (NEURIM PHARMACEUTICALS (1991) LTD., priority 2021, dated 2023)
# Marks after values point to notes of the source that are not given here.
# What was measured:
# [1] = system: patients with early symptomatic Alzheimer's disease; assay: computerized Neuropsychological Test Battery (cNTB), randomized placebo controlled study; assay type: in vivo, human; set-up: key to cNTB Improvement: ns = non-significant effect; deter = deterioration compared to placebo; conditions: for cNTB: 5, 20 and 50 mg daily for 26 weeks, change from baseline
# Experimental: DNA extraction and SNP genotyping were performed as follows: For 107 patients, whole blood was collected at the time of enrollment, and genomic DNA was extracted from peripheral lymphocytes using a commercial kit. Variant genotyping of a combined Whole Genome and Whole Exome sequencing, was performed. The detection of variants associated with the response of the treatment was performed through a genome wide association study (GWAS) analysis (which is a known case-control paradigm). […] The general case-control allelic test was performed through a Cochran-Armitage trend test. […] The stratification was assessed by a complete-linkage hierarchical clustering using the pairwise population concordance as a constraint. The SNP calling was done on the aligned BAM files using DRAGEN: […]
# [2] = system: patients with early symptomatic Alzheimer's disease; assay: Alzheimer's Disease Assessment Scale cognitive subscale (ADAS-Cog14), randomized placebo controlled study; assay type: in vivo, human; set-up: key to ADAS-Cog14 Improvement: ns = non-significant effect; deter = deterioration compared to placebo
# [3] = system: patients with early symptomatic Alzheimer's disease; assay: neuropsychiatric inventory (NPI), randomized placebo controlled study; assay type: in vivo, human; conditions: for NPI Improvement: 20 mg daily for 26 weeks
# [4] = system: patients with early symptomatic Alzheimer's disease; assay: sleep quality index (PSQI), randomized placebo controlled study; assay type: in vivo, human; conditions: non-carriers (N = 23); 20 mg daily for 26 weeks
# 5-HT-1b receptor = target: T1, 5-HT-1b receptor (Rattus norvegicus, UniProt P28564); assay: receptor binding assay, radioligand 125I CYP, rat cerebral cortex; conditions: 5-HT1B
# T1 construct: from tissue; host or cells: rat cerebral cortex
# Experimental: (§1) For receptor binding assays, stably expressing 5-HT1a, 1b, 1d and 2c receptors cells (HEK-293, rat cerebral cortex, CHO and HEK-293, respectively) were incubated with 0.3 or 1 nM of their respective radioligand (^3H-OH-DPAT, ^125I CYP, ^3H serotonin and ^3H-mesulergine) alone or in the presence of 1 nM to 10 μM of piromelatine. The bound radioligand was assessed. Non-specific binding was evaluated under the reaction contained with 8-OH-PTA, serotonin and RS-10221 (8-[5-(2,4-Dimethoxy-5-(4-trifluoromethylphenylsulphonamido)phenyl-5-oxopentyl]-1,3,8-triazaspiro[4.5]decane-2,4-dione hydrochloride).
# 5-HT-2a receptor = 5-HT-2a receptor (Homo sapiens, UniProt P28223); assay: receptor binding assay; conditions: 5-HT2A
# 5-HT-2b receptor = 5-HT-2b receptor (Homo sapiens, UniProt P41595); assay: receptor binding assay; conditions: 5-HT2B
# 5-HT-2c receptor = target: T2, 5-HT-2c receptor (Homo sapiens, UniProt P28335); assay: receptor binding assay, radioligand 3H-mesulergine, HEK-293 cells; conditions: 5-HT2C
# T2 construct: expressed in transfected cells; host or cells: HEK-293
# T2 sequence (P28335 33-458): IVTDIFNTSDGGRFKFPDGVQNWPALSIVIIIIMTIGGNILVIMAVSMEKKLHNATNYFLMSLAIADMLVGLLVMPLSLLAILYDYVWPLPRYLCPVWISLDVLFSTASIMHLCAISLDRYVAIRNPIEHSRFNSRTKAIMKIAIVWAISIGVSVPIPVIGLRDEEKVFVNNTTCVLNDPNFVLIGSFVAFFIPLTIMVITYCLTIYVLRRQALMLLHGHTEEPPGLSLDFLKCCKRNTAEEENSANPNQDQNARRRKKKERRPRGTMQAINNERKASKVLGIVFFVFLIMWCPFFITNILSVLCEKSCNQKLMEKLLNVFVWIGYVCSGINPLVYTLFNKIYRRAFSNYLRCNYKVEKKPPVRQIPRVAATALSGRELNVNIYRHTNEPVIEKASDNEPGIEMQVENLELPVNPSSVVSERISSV
# Experimental: as §1
# 5-HT1a [5] = target: T3, 5-HT1a (Homo sapiens, UniProt P08908); assay: functional assay, HTRF (cAMP or IP1); assay type: cell-based
# T3 sequence (P08908 1-422): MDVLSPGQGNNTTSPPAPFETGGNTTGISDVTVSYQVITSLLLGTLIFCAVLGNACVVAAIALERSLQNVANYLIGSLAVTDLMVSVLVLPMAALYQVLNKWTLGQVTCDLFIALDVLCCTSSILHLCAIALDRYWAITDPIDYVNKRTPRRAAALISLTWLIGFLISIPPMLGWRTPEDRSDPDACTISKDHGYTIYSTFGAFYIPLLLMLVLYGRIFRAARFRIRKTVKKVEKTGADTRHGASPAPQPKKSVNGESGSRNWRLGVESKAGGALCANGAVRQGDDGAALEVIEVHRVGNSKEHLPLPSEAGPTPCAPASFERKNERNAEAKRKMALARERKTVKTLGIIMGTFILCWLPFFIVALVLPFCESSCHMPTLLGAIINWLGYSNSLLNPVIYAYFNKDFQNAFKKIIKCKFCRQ
# Excerpt: (§2) For the functional assay, Homogeneous Time Resolved Fluorescence (HTRF) was used to measure cAMP or IP1 as products of the functional agonist or antagonist binding of 5-HT1a, 2a,2b, 2c, 4e, 6, 7 to their respective ligand (8-OG-DPAT or serotonin). Cellular dielectric spectroscopy was used to measure impedance as the product of the functional agonist or antagonist binding of 5HT1b and determine their respective ligand (serotonin).
# 5-HT1d = assay: functional assay; assay type: cell-based; conditions: 5-H 1d
# 5HT1b = 5HT1b (Homo sapiens, UniProt P28222); assay: functional assay, cellular dielectric spectroscopy (impedance); assay type: cell-based
# Excerpt: as §2
# [6] = system: 60 different ion channels and receptors of different neurotransmitters and hormones; assay: full profile of binding parameters, 60 receptor assays; conditions: 10 μM; none of the 60 receptor assays significant
# Experimental: A full profile of binding parameters to an additional 60 different ion channels and receptors of different neurotransmitters and hormones was performed (data not shown because none of the 60 receptor assays yielded a significant (>50%) inhibition by 10 μM of piromelatine).
# [7] = system: patients with early symptomatic Alzheimer's disease; assay: computerized Neuropsychological Test Battery (cNTB), randomized placebo controlled study; assay type: in vivo, human
# 5-HT1a [8] = target: T3, 5-HT1a; assay: receptor binding assay, radioligand 3H-OH-DPAT, HEK-293 cells; set-up: expressed in transfected cells; host or cells: HEK-293; conditions: 5-HT1A
# Experimental: as §1
# [9] = locus polymorphism carriers, 5, 20 and 50 mg, 26 weeks, N = 19, vs placebo
# [10] = locus polymorphism non-carriers, 5, 20 and 50 mg, 26 weeks, N = 59, vs placebo
# [11] = whole study, n=352, 5, 20, and 50 mg daily for 6 months
# Sequence of 5-HT-2b receptor (P41595 whole entry): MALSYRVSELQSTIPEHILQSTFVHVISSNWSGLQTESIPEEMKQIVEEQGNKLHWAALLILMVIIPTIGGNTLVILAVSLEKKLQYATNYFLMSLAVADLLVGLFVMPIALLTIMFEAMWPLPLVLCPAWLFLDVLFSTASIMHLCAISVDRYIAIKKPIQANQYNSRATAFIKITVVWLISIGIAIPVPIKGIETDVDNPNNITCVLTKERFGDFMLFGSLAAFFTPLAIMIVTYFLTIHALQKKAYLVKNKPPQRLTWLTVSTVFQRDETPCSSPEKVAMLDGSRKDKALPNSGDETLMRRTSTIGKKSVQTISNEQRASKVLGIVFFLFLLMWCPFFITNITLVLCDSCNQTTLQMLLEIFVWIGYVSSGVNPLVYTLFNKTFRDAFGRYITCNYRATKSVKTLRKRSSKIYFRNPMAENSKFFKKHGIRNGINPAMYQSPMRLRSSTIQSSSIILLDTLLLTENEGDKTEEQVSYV
# T1 sequence (P28564 whole entry): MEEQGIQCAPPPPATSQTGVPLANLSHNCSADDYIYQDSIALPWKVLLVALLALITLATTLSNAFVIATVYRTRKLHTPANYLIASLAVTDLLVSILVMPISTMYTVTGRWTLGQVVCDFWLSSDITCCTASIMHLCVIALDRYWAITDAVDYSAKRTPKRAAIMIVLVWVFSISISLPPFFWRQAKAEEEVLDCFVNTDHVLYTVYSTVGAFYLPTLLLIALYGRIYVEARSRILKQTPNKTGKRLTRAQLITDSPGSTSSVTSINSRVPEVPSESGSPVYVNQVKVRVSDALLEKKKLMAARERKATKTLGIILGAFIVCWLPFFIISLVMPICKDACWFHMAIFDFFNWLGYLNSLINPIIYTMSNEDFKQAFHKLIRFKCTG
# Sequence of 5HT1b (P28222 whole entry, species assumed): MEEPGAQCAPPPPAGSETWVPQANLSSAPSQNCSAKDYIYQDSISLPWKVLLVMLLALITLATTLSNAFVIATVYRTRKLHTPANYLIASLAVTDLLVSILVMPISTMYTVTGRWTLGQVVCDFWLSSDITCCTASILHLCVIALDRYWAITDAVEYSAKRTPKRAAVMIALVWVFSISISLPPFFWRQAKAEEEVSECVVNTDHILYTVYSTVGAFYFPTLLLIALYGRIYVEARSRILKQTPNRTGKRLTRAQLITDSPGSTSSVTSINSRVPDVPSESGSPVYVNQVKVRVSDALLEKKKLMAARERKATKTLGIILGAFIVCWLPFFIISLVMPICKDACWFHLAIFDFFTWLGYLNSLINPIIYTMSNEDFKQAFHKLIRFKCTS
# Sequence of 5-HT-2a receptor (P28223 whole entry): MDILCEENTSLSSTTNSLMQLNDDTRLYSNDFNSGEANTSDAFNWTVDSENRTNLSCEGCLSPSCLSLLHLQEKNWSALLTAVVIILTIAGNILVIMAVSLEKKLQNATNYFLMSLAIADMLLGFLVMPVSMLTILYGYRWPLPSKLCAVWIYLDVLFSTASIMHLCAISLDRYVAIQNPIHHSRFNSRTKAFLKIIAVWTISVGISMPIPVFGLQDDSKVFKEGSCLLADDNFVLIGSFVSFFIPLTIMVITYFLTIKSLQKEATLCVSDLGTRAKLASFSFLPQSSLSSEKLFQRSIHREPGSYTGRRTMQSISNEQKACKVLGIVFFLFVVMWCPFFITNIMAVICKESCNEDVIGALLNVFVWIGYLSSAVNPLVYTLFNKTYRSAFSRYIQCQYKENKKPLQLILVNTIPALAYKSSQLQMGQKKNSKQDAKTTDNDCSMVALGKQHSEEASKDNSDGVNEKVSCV
structure (smiles),measurement,setting,value
"COc1ccc2[nH]cc(CCNC(=O)c3cc(=O)cco3)c2c1 [piromelatine, N-(2-(5-methoxy-1H-indol-3-yl)ethyl)-4-oxo-4H-pyran-2-carboxamide]",cNTB Improvement,"[1]; carriers (N = 12), 20 mg daily for 26 weeks",yes
same,cNTB attention domain composite score,"[1]; carriers, 5 mg",improved
same,cNTB episodic memory domain composite score,"[1]; carriers, 5 mg",improved
same,cNTB episodic memory domain composite score,"[1]; carriers, 20 mg",improved
same,cNTB,"[1]; locus polymorphism carriers, N = 19",0.38*
same,cNTB Improvement,[1]; [9],yes
same,cNTB,"[1]; locus polymorphism non-carriers, N = 59",−0.04
same,cNTB Improvement,[1]; [10],ns
same,"ADAS Cog14, Cohen's d vs placebo > 0.2","[2]; carriers, 5 mg daily for 26 weeks",improvement
same,ADAS-Cog14,"[2]; locus polymorphism carriers, 5, 20 and 50 mg daily for 26 weeks, N = 19",0.63*
same,ADAS-Cog14 Improvement,[2]; [9],deter
same,ADAS-Cog14 Improvement,[2]; [10],yes
same,ADAS-Cog14 Improvement,"[2]; non-carriers (N = 23), 20 mg daily for 26 weeks",yes
same,"ADAS Cog14, Cohen's d vs placebo > 0.20","[2]; non-carriers, 5 mg daily for 26 weeks",no improvement
same,"ADAS-Cog14, drug vs placebo",[2]; [11],no statistically significant differences
same,NPI Improvement,[3]; carriers (N = 12),yes
same,NPI aberrant movements,"[3]; carriers, 20 mg",improvement
same,NPI Improvement,[3]; non-carriers (N = 23),yes
same,PSQI Improvement,[4],yes
same,affinity in words,5-HT-1b receptor,low affinity
same,affinity in words,5-HT-2a receptor,low affinity
same,affinity in words,5-HT-2b receptor,low affinity
same,affinity in words,5-HT-2c receptor,low affinity
same,agonist activity,5-HT1a [5],moderate agonist activity
same,agonist activity,5-HT1d,moderate agonist activity
same,agonist activity,5HT1b,Low agonist activity
same,inhibition,[6],≤ 50%
same,cNTB attention domain composite score,"[7]; carriers, 20 mg",improved
same,"global composite score of the cNTB, drug vs placebo",[7]; [11],no statistically significant differences
same,affinity in words,5-HT1a [8],low affinity
